# Measurements taken from publication PMC3907559, “KDT501, a Derivative from Hops, Normalizes Glucose Metabolism and Body Weight in Rodent Models of Diabetes” (PLoS ONE, 2014).
# Assays:
# [1] = test system: THP-1 cells; experiment: LPS-stimulated inflammatory mediators in THP-1 cells; format: cell-based, human; details: 1 hour pre-incubation, LPS 1 µg/mL overnight, various concentrations (KDT501 6.25 to 50 µM)
# Description: THP-1 cells were maintained in RPMI1640 in the presence of 10% serum according to manufacturer's instructions as described earlier. The cells were pre-incubated with various concentrations of test compounds (KDT501, rosiglitazone, telmisartan, DHA or PGJ2) in the presence of 1% serum medium for 1 hour, then stimulated with TNF-α (10 ng/ml) or LPS (1 µg/ml) overnight (16–20 hours. Cytokines were assayed using a Milliplex MAP human cytokine/chemokine kit and Luminex 100™ IS. Data were analyzed using a five-parameter logistic method and represented as Mean ±SD of four independent samples.
# [2] = test system: human subcutaneous adipocytes; experiment: Lipogenesis in human subcutaneous adipocytes (Oil Red O); format: cell-based; details: 10 days, relative to DMSO
# Description: (§1) Murine 3T3-L1 preadipocytes were maintained in DMEM supplemented with 10% FBS as described earlier. Cells were seeded at an initial density of approximately […] in 24-well plates. After confluence, cells were treated with KDT501 ([…]), rosiglitazone (10 µM), or DMSO on day 0. Cells were differentiated in differentiation medium consisting of 10% FBS/DMEM, 0.5 mM methylisobutylxanthine, 0.5 µM dexamethasone, and 10 µg/mL insulin. After two days, the medium was changed to progression medium consisting of 10 µg/mL insulin in 10% FBS/DMEM followed by 2 more days in maintenance medium consisting of 10% FBS/DMEM. KDT501 or rosiglitazone were included throughout the maturation phase (day 6/day 7). Human subcutaneous primary adipocytes were maintained as described for 3T3L1 adipocytes and treated with rosiglitazone (1 µM), KDT501 (10 µM), telmisartan (10 µM), DHA (10 µM) or PGJ2 (10 µM) for 10 days. Intracellular lipid was quantified with Oil O-Red staining using an adipogenesis assay kit from (Millipore, Billerica, MA). The medium was carefully discarded and washed twice with PBS. 300 µL Of Oil O-Red solution were added and incubated for 15 minutes at room temperature. The cells were washed, and bound dye was extracted and transferred to a 96 well plate. Absorbance was measured at 530 nm using a plate reader (Thermo Electron Corp.). Fold change relative to DMSO control was calculated from four independent wells for each condition. Data represent Mean ± SD.
# [3] = biological target: T1, PPARγ (Homo sapiens, UniProt P37231); experiment: PPARγ reporter assay (Indigo Biosciences); format: cell-based
# T1 sequence (P37231 1-505): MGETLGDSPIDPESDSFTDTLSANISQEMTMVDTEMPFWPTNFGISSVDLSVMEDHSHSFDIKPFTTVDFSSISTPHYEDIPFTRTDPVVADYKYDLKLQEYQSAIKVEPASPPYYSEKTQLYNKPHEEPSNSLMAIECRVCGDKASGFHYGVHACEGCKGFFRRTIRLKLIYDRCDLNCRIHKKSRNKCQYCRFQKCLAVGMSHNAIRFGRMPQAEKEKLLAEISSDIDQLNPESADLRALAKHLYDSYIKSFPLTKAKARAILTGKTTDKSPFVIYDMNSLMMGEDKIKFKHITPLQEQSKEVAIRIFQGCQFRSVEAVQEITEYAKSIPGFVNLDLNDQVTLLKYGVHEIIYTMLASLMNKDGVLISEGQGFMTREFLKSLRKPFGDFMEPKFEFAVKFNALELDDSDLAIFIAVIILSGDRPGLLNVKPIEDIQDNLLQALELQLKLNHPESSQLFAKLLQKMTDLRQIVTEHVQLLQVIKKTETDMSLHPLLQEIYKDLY
# Description: PPAR assay kits from Indigo Biosciences and supplemented protocols were used in this study. Briefly, the reporter cells were treated in triplicates with various concentrations of KDT501 (25–0.78 µM). Telmisartan (10–0.625 µM), GW590735 (10–0.03 µM), and GW0742 (1–0.01 µM) were used as positive controls for PPARγ, PPARα and PPARδ respectively. […]. Cells were incubated for 20 hours as per the protocol and read using a luminometer (Victor2, Perkin Elmer). Average relative light unit (RLU) values from blank wells were subtracted from all the samples. The final data were compared with DMSO control and statistical analyses were performed using GraphPad Prism.
# [4] = test system: human subcutaneous adipocytes; experiment: Gene expression profile and gene ontology in human subcutaneous adipocytes; format: cell-based; details: 5 days
# Description: Human subcutaneous primary adipocytes were maintained as described earlier. Cells were seeded at an initial density of approximately 2×10^6 cells in 6-well plates with PGM-2 medium (2 mL medium/well) and allowed to grow for 24 hr to confluence. Cells were treated with test compounds KDT501 (25 µM), rosiglitazone (1 µM), telmisartan (10 µM), or DMSO in adipocyte differentiating medium. The differentiation medium consisted of indomethacin, methylisobutylxanthine, dexamethasone, and insulin from PGM-2 single aliquots. After 5 days, the cells were washed in PBS, frozen in liquid nitrogen and shipped to Expression Analysis (Durham, NC) in dry ice. Three independent plates were used for each condition. RNA was extracted using the miRNeasy Mini Kit (Qiagen) as described by the manufacturer. RNA was isolated and expression profiling was performed using the Ambion WT Expression Kit (Life Technologies). Labeled target, which was hybridized to GeneChip Human Gene 1.0 ST Arrays (Affymetrix), was prepared essentially as described by the manufacturer. This cDNA was then used as a template for in vitro transcription using T7 RNA Polymerase to produce anti-sense RNA, which was then converted into single-stranded sense cDNA that was fragmented and labeled with biotin prior to hybridization to the GeneChip Arrays. […]
# [5] = test system: DIO mice; experiment: DIO mice, oral dosing twice daily (body fat, OGTT); format: in vivo, C57Bl6/J male mice; details: for OGTT glucose AUC / OGTT insulin AUC: four weeks, vs controls
# Description: C57Bl6/J male mice were 15 weeks old at the start of the experiment. In general, DIO models are initiated at an early age to evaluate effects on obesity. However, older, overweight mice were used in this study to represent middle-aged human subjects for the assessment of metabolic parameters associated with weight loss/diabetes. The mice were housed individually in cages at 72±4°F with a relative humidity of 30–70% with 12 hour light- dark cycle. High fat diet (40% Cal) TD95217 (Teklad Custom Research Diet) was used in this study. The test compounds were administered orally twice per day at 12 hour intervals (10 mL/kg) in 0.5% methylcellulose and 0.2% Tween 80 (w/v). Mice were randomly allocated on the basis of body weight to seven groups (N = 10/group), with five animals for the oral glucose tolerance test (OGTT) and 5 animals for the insulin tolerance test. […] Body weight and food consumption were determined weekly. After 30 days, the mice were fasted overnight, blood was drawn through the tail vein and baseline blood glucose was measured using a glucose analyzer. One hour later, mice were given an oral gavage of glucose solution in water (4 ml/kg, 2 g/kg) and blood samples were taken at 15, 30, 60, and 120 min to determine plasma glucose and insulin levels. Five days before the start of the experiment (t = −5 days) and again at the end of the experiment (t = 28 days), body fat was determined using QNMR. With the exception of the group treated with 200 mg/kg KDT501, 10 animals/group were used in the determinations. Insulin and HbA1c glucose levels were determined on days 1, 15 and 29. Statistical calculations were performed (JMP version, SAS Institute, Cary, NC). One-way ANOVA with Dunnett's test for post hoc determinations were used to compare vehicle treated control. Data were expressed as mean ± SEM.
# [6] = test system: ZDF rats; experiment: Second ZDF rat study (total cholesterol, triglycerides in plasma); format: in vivo; details: twice daily oral
# Description: Blood was collected via tail bleed and whole blood glucose was measured on days 1, 8, 15 and 29. Blood was collected in 5 animals on days 15 and 29 for determination of glucose, insulin, lipids, hematocrit, and HbA1c. Animals were fasted overnight and OGTT was conducted on days 31 and 32 for determination of glucose and insulin levels. A second ZDF rat study was conducted and the resulting data on total cholesterol are presented. Statistical calculations were performed (JMP version, SAS Institute, Cary, NC). One-way ANOVA with Dunnett's test for post hoc determinations were used to compare vehicle treated control. Data were expressed as mean ± SEM.
# [7] = test system: Zucker Diabetic Fatty (ZDF) rats; experiment: ZDF rats, oral dosing twice daily (weight, HbA1c, glucose, OGTT); format: in vivo, rat
# Description: Male ZDF rats were obtained from Charles River Laboratories at approximately 7 weeks of age. Rats were maintained ad lib on Purina #5008 diet, delivering approximately 17% of calories from fat. Animals with fasting glucose between 150–350 mg/dL were randomized based on glucose and body weight. Test articles were prepared in 0.5% (w/v) methylcellulose + 0.2% (w/v) Tween 80 and given by oral gavage twice daily. Rats (10/group, 6 treatment groups) were administered KDT501 (100, 150, or 200 mg/kg), metformin (200 mg/kg), pioglitazone (30 mg/kg) or vehicle control for up to 32 days. Body weights and food intake were determined weekly. Blood was collected via tail bleed and whole blood glucose was measured on days 1, 8, 15 and 29. Blood was collected in 5 animals on days 15 and 29 for determination of glucose, insulin, lipids, hematocrit, and HbA1c. Animals were fasted overnight and OGTT was conducted on days 31 and 32 for determination of glucose and insulin levels. A second ZDF rat study was conducted and the resulting data on total cholesterol are presented. Statistical calculations were performed (JMP version, SAS Institute, Cary, NC). One-way ANOVA with Dunnett's test for post hoc determinations were used to compare vehicle treated control. Data were expressed as mean ± SEM.
# [8] = test system: RAW264.7 cells; experiment: LPS-activated PGE2 and NO in RAW264.7 cells; format: cell-based; details: results not shown
# [9] = test system: 3T3L1 adipocytes; experiment: Lipogenesis in 3T3L1 adipocytes (Oil Red O); format: cell-based, murine; details: 10 µM, 6 days, relative to DMSO
# Description: as §1, with “The cells were washed, and bound dye was extracted and transferred to a 96 well plate.” left out, “Data represent Mean ± SD.” left out
structure (smiles),measurement,setting,value
CCCc1nc2c(C)cc(-c3nc4ccccc4n3C)cc2n1Cc1ccc(-c2ccccc2C(=O)O)cc1 [telmisartan],LPS stimulated IL-6,[1],inhibited these cytokines in a concentration-dependent manner
same,LPS stimulated MCP-1,[1],inhibited these cytokines in a concentration-dependent manner
same,LPS stimulated RANTES,[1],inhibited these cytokines in a concentration-dependent manner
same,"lipogenesis, fold increase",[2]; 10 µM,3.5 fold
same,EC50,[3],13.4 µM
same,number of transcripts changed,"[4]; 10 µM, 5 up and 3 down, common to rosiglitazone and KDT501",8
CN(C)C(=N)N=C(N)N [metformin],OGTT glucose AUC,[5]; 200 mg/kg twice per day oral,significantly reduced
same,OGTT insulin AUC,[5]; 200 mg/kg twice per day oral,significantly reduced
same,fat mass by the end of the study (QNMR),"[5]; 200 mg/kg twice per day oral, vs vehicle",Significant reduction
same,total cholesterol in plasma,[6]; metformin group,neither metformin nor pioglitazone had this effect
same,body weight,[7]; 200 mg/kg twice daily oral (metformin group),gained weight
CN(CCOc1ccc(CC2SC(=O)NC2=O)cc1)c1ccccn1 (centres unmarked) [rosiglitazone],LPS stimulated IL-6,[1],did not significantly affect
same,LPS stimulated MCP-1,[1],did not significantly affect
same,LPS stimulated RANTES,[1],did not significantly affect
same,"lipogenesis, fold increase",[2]; 1 µM,10.3 fold
same,induction of LPS-activated PGE2,[8],not with rosiglitazone
same,"lipogenesis, fold increase",[9],about 2.8 fold
same,number of transcripts stimulated at least 2-fold,[4]; 1 µM,62
"CCCCC/C=C/C=C1/C(=O)C=C[C@@H]1C/C=C\CCCC(=O)O [PGJ2, 5-deoxy-Δ12,14-PGJ2]",LPS stimulated IL-6,[1],inhibited these cytokines in a concentration-dependent manner
same,LPS stimulated MCP-1,[1],inhibited these cytokines in a concentration-dependent manner
same,LPS stimulated RANTES,[1],inhibited these cytokines in a concentration-dependent manner
same,"lipogenesis, fold increase",[2]; 10 µM,8.8 fold
CC/C=C\C/C=C\C/C=C\C/C=C\C/C=C\C/C=C\CCC(=O)O [DHA],LPS stimulated IL-6,[1],inhibited these cytokines in a concentration-dependent manner
same,LPS stimulated MCP-1,[1],inhibited these cytokines in a concentration-dependent manner
same,LPS stimulated RANTES,[1],inhibited these cytokines in a concentration-dependent manner
same,"lipogenesis, fold increase",[2]; 10 µM,No significant changes
CCc1ccc(CCOc2ccc(CC3SC(=O)NC3=O)cc2)nc1 (centres unmarked) [pioglitazone],OGTT glucose AUC,[5]; 30 mg/kg twice per day oral,significantly reduced
same,OGTT insulin AUC,[5]; 30 mg/kg twice per day oral,significantly reduced
same,total cholesterol in plasma,[6]; pioglitazone group,neither metformin nor pioglitazone had this effect
same,triglycerides in plasma,"[6]; pioglitazone group, day 15 and day 30",reduced triglycerides
same,HbA1c at the end of the study,[7]; 30 mg/kg twice daily oral,approximately half that of the vehicle-treated control
same,body weight,[7]; 30 mg/kg twice daily oral,gained weight
